# Values quoted from earlier work, collected in patent US8978468B2, “Nonvisual indication of an unwanted chemical in an ingestible substance” (priority 2009, dated 2015).
# Read-outs that look alike come from different tables or passages of the source.
# What was measured:
# [1] = test system: mammal (species unspecified); conditions: route not given
# [2] = test system: rat
# [3] = test system: mouse
# [4] = species and route not given
compound,measurement,setting,value
propan-2-amine,Toxic Dose mammal (species unspecified) LD50,[1],LD50 500 mg/kg
same,Toxic Dose oral-rat LD50,[2]; oral,oral-rat LD50 111 mg/kg
propan-1-amine,Toxic Dose mammal (species unspecified) LD50,[1],LD50 580 mg/kg
same,Toxic Dose oral-rat LD50,[2]; oral,oral-rat LD50 370 mg/kg
SC1CCCC1 [cyclopentanethiol],"Toxic Dose oral-mouse LD50 [sex: M, F (5/group)]","[3]; oral, sex: M, F (5/group)",(5/group)] 2680 mg/kg
2-methylpropane-1-thiol,Toxic Dose gavage-rat LD50,[2]; gavage,gavage-rat LD50 7168 mg/kg
same,Toxic Dose oral-rat LD50,[2]; oral,oral-rat LD50 7168 mg/kg
CC(C)C(C)S (stereo not drawn) [3-methylbutane-2-thiol],"Toxic Dose gavage-rat LD50 [sex: M, F]","[2]; gavage, sex: M, F",540 mg/kg
butane-1-thiol,Toxic Dose gavage-rat LD50,[2]; gavage,gavage-rat LD50 1500 mg/kg
2-aminoethanol,Toxic Dose oral-rat LD50,[2]; oral,oral-rat LD50 1720 mg/kg
NC1CCCCC1 [cyclohexanamine],Toxic Dose LD50,[4],LD50 224 mg/kg
same,Toxic Dose oral-rat LD50,"[2]; in vivo, po",oral-rat LD50 11 mg/kg
NCCCC(=O)O [4-aminobutanoic acid],Toxic Dose oral-mouse LD50,[3]; oral,oral-mouse LD50 12680 mg/kg
same,Toxic Dose mouse LD50,[3]; route not given,mouse LD50 7230 mg/kg
CC1OCCC1S (stereo not drawn) [2-methyltetrahydrofuran-3-thiol],Toxic Dose gavage-mouse LD50,[3]; gavage,gavage-mouse LD50 1860 mg/kg
